# Experimental data as given in patent US20100267561A1, “HERBICIDAL PYRIDAZINONE DERIVATIVES” (priority 2007, published 2010).
# Legend:
# Assay type in all cases: in vivo
# [1] = tested on: blackgrass (Alopecurus myosuroides); assay: Test A pre-/postemergence plant response
# Method in brief: (§1)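 Ratings run 0–100 (100 = complete control), assigned visually against untreated controls roughly 10 days after treatment in a greenhouse. Compounds, formulated in non-phytotoxic solvent containing surfactant, were applied as a soil-directed preemergence spray and concurrently postemergence to one- to two-leaf plants 2–10 cm tall.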
# [2] = tested on: canarygrass (Phalaris minor); assay: Test A pre-/postemergence plant response
# Method in brief: as §1
# [3] = tested on: spring wheat (Triticum aestivum); assay: Test C pre-/postemergence plant response; settings: Preemergence
# Method in brief: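 Pre- and postemergence treatment, visual 0–100 rating vs controls at 15–25 days.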
# [4] = Postemergence, 31 g ai/ha, 0 to 100 scale, 0 no effect, 100 complete control
# [5] = Postemergence, 125 g ai/ha, 0 to 100 scale, 0 no effect, 100 complete control
# [6] = Preemergence, 31 g ai/ha, 0 to 100 scale, 0 is no effect, 100 is complete control
# [7] = Preemergence, 125 g ai/ha, 0 to 100 scale (0 no effect, 100 complete control)
# [8] = 8 g ai/ha, scale 0 to 100 (0 no effect, 100 complete control)
# [9] = 16 g ai/ha, scale 0 to 100 (0 no effect, 100 complete control)
# [10] = 31 g ai/ha, scale 0 to 100 (0 no effect, 100 complete control)
# [11] = 62 g ai/ha, scale 0 to 100, 0 no effect, 100 complete control
# [12] = Postemergence, 500 g ai/ha, 0 to 100 scale, 0 no effect, 100 complete control
# [13] = Preemergence, 500 g ai/ha, 0 to 100 scale (0 no effect, 100 complete control)
SMILES,"Plant response rating, Blackgrass [1, 4]","Plant response rating, Blackgrass [1, 5]","Plant response rating, Blackgrass [1, 6]","Plant response rating, Blackgrass [1, 7]","Plant response rating, Canarygrass [2, 4]","Plant response rating, Canarygrass [2, 5]","Plant response rating, Canarygrass [2, 6]","Plant response rating, Canarygrass [2, 7]","Plant response rating, Wheat, Spring [3, 8]","Plant response rating, Wheat, Spring [3, 9]","Plant response rating, Wheat, Spring [3, 10]","Plant response rating, Wheat, Spring [3, 11]","Plant response rating, Blackgrass [1, 12]","Plant response rating, Blackgrass [1, 13]","Plant response rating, Canarygrass [2, 12]","Plant response rating, Canarygrass [2, 13]"
"Cn1ncc(O)c(-c2nn(-c3ccc(C(F)(F)F)cc3)cc2Br)c1=O [Compound 87, 4-[4-bromo-1-[4-(trifluoromethyl)phenyl]-1H-pyrazol-3-yl]-5-hydroxy-2-methyl-3(2H)-pyridazinone]",30,80,30,90,10,70,0,90,,,,,,,,
"Cc1cn(-c2ccc(C(F)(F)F)cc2)nc1-c1c(O)cnn(C)c1=O [Compound 85, 5-hydroxy-2-methyl-4-[4-methyl-1-[4-(trifluoromethyl)phenyl]-1H-pyrazol-3-yl]-3(2H)-pyridazinone]",0,40,0,40,0,20,40,70,,,,,,,,
Cc1cc(-c2ccc(Cl)cc2)nn1-c1c(OC(=O)c2cccs2)cnn(C)c1=O [Compound 52],,,,,,,,,0,0,65,90,,,,
CCc1cc(-c2ccc(Br)cc2)nn1-c1c(O)c(C)nn(C)c1=O [Compound 74],100,100,100,100,100,100,80,100,,,,,,,,
Cc1cc(-c2ccc(Cl)cc2)nn1-c1c(OS(=O)(=O)c2ccc(Cl)s2)cnn(C)c1=O [Compound 55],,,,,,,,,0,0,50,60,,,,
"Cc1cc(-c2ccc(Br)cc2)nn1-c1c(O)cnn(C2CCCCO2)c1=O (stereo not drawn) [Compound 77, 4-[3-(4-bromophenyl)-5-methyl-1H-pyrazol-1-yl]-5-hydroxy-2-(tetrahydro-2H-pyran-2-yl)-3(2H)-pyridazinone]",,100,,80,,60,,,,,,,100,100,100,90
COc1nn(C)c(=O)c(-n2nc(-c3ccc(Br)cc3)cc2C)c1O [Compound 82],100,100,70,100,100,100,20,100,,,,,,,,
CCc1c(C)c(-c2ccc(Br)cc2)nn1-c1c(O)cnn(C)c1=O [Compound 83],90,100,20,100,70,100,,90,,,,,,,,
"Cc1nn(C)c(=O)c(-c2nc(-c3ccc(Cl)cc3)sc2C)c1O [Compound 79, 4-[2-(4-chlorophenyl)-5-methyl-4-thiazolyl]-5-hydroxy-2,6-dimethyl-3(2H)-pyridazinone]",60,100,80,100,40,90,0,100,,,,,,,,
Cc1cc(-c2ccc(Cl)cc2)nn1-c1c(OS(=O)(=O)c2cccc3ccccc23)cnn(C)c1=O [Compound 47],,,,,,,,,0,15,25,65,,,,
